Patent US20250304567A1, “PYRROLIDIONE DERIVATIVES AS INHIBITORS OF NF KAPPA B INDUCING KINASE” (priority 2022, published 2025)
pIC50: −log10 of the molar value. Read-outs that look alike come from different tables or passages of the source.

Assays:
[1] = target: Recombinant Human NF-kappaB-Inducing Kinase (NIK/MAP3K14) (Homo sapiens, UniProt Q99558); assay: Inhibition of auto-phosphorylation of recombinant human NIK/MAP3K14 activity (AlphaScreen); format: biochemical; settings: 5 μM ATP, 1 nM NIK, average if tested more than once
Recombinant Human NF-kappaB-Inducing Kinase (NIK/MAP3K14), sequence (Q99558 whole entry): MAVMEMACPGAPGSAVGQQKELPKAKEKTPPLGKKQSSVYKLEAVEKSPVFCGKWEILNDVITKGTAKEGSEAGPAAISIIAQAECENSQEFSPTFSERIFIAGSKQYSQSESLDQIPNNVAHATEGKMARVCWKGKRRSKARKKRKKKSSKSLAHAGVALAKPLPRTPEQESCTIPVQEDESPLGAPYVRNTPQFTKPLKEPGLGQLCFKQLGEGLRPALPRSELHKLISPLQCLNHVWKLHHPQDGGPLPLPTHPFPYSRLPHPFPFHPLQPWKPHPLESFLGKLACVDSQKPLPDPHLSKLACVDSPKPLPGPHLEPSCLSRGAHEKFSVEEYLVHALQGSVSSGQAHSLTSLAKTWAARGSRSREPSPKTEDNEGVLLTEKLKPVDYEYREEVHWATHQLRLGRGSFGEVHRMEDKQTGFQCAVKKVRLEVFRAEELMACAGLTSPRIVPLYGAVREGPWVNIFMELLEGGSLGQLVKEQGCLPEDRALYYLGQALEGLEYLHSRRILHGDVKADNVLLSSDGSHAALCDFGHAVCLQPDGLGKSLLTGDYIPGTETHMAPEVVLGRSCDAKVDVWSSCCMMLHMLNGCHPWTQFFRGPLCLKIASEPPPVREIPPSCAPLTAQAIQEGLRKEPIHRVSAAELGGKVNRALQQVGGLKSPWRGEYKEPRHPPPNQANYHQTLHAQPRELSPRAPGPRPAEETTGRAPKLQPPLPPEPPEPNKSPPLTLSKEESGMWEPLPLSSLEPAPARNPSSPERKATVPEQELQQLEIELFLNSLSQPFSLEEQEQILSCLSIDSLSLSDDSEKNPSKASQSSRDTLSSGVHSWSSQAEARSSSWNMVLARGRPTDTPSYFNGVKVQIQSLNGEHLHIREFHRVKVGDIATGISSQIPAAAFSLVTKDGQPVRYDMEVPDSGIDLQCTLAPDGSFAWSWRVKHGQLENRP
Procedure, shortened: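 AlphaScreen detection of phospho-Ser176/180 after 1 nM GST-NIK auto-phosphorylates for 2 h at 25 °C with 5 μM ATP (50 mM Tris pH 7.5, 0.7% DMSO). IC50s come from sigmoidal curves of % inhibition against log dose, using enzyme-free, ATP-free low controls and full-activity high controls.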

[2] = test system: p-IKKa levels in L363 (NIK translocated multiple myeloma) cells; assay: Effect of compounds on p-IKKa levels in L363 (NIK translocated multiple myeloma) cells (AlphaLISA SureFire Ultra p-IKKa Ser176/180); format: cell-based, human; settings: average if tested more than once, read-out: Assay 2 IC50
Procedure, shortened: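 Phospho-IKKa (Ser176/180) in lysates quantified by AlphaLISA after 6 h compound exposure, 11-point threefold dilutions, 0.3% DMSO. L363 cells were pre-stimulated overnight and assayed with 250 ng/ml BAFF and 10 μM MG132; % inhibition fitted sigmoidally for IC50, duplicate curves.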

[3] = Homo sapiens, L-363, p-IKKa levels in L363 cells

Row | SMILES | pIC50 [1] | pIC50 [2, 3] | pIC50 ([2]; p-IKKa levels in L363 cells)
1 | COc1cc(Nc2nccc(-c3nc(-c4cccc([C@]5(O)CCN(C)C5=O)c4)cs3)n2)n(C)n1 [Example 84, (R)-3-hydroxy-3-(3-(2-(2-((3-methoxy-1-methyl-1H-pyrazol-5-yl)amino)pyrimidin-4-yl)thiazol-4-yl)phenyl)-1-methylpyrrolidin-2-one] | < 6.30 | < 6.30 | –
2 | Cc1cnoc1Nc1nccc(-c2csc(-c3cccc([C@]4(O)CCN(C)C4=O)c3)n2)n1 [Example 274, (R)-3-Hydroxy-1-methyl-3-(3-(4-(2-((4-methylisoxazol-5-yl)amino)pyrimidin-4-yl)thiazol-2-yl)phenyl)pyrrolidin-2-one] | < 6.30 | < 6.30 | –
3 | CN1CC[C@@](O)(c2cccc(-c3nc(-c4ccnc(N[C@H]5CCC[C@@H]5O)n4)cs3)c2)C1=O [Example 108, (R)-3-hydroxy-3-(3-(4-(2-(((1S,2S)-2-hydroxycyclopentyl)amino)pyrimidin-4-yl)thiazol-2-yl)phenyl)-1-methylpyrrolidin-2-one] | 6.30 to 7.00 | < 6.30 | –
4 | CN1CC[C@@](O)(c2cccc(-c3nc(-c4ccnc(Nc5cc6c(nn5)CCC6)n4)cs3)c2)C1=O [Example 71, (R)-3-(3-(4-(2-((6,7-dihydro-5H-cyclopenta[c]pyridazin-3-yl)amino)pyrimidin-4-yl)thiazol-2-yl)phenyl)-3-hydroxy-1-methylpyrrolidin-2-one] | > 7.00 | < 6.30 | –
5 | Cc1ncc(C#N)cc1Nc1nccc(-c2csc(-c3cccc([C@]4(O)CCN(C)C4=O)c3)n2)n1 [Example 8, (R)-5-((4-(2-(3-(3-Hydroxy-1-methyl-2-oxopyrrolidin-3-yl)phenyl)thiazol-4-yl)pyrimidin-2-yl)amino)-6-methylnicotinonitrile] | > 7.00 | 6.30 to 7.00 | –
6 | CN1CCC(O)(c2ccc(F)c(-c3csc(-c4ccnc(Nc5ccn(C)n5)n4)n3)c2)C1=O (single isomer, unassigned) [Example 28, 3-(4-fluoro-3-(2-(2-((1-methyl-1H-pyrazol-3-yl)amino)pyrimidin-4-yl)thiazol-4-yl)phenyl)-3-hydroxy-1-methylpyrrolidin-2-one] | > 7.00 | – | > 7.00
7 | CC(Nc1nccc(-c2csc(-c3cccc([C@]4(O)CCN(C)C4=O)c3)n2)n1)C(=O)N1CCN(C)CC1 (stereo partly drawn) [Example 229] | 6.30 to 7.00 | < 6.30 | –
8 | CN1CC[C@@](O)(c2cccc(-c3nc(-c4ccnc(Nc5cn(C6CCC6)cn5)n4)cs3)c2)C1=O [Example 124, (R)-3-(3-(4-(2-((1-cyclobutyl-1H-imidazol-4-yl)amino)pyrimidin-4-yl)thiazol-2-yl)phenyl)-3-hydroxy-1-methylpyrrolidin-2-one] | > 7.00 | < 6.30 | –
9 | CN1CC[C@@](O)(c2cccc(-c3nc(-c4ccnc(N[C@H]5CCC[C@H](O)C5)n4)cs3)c2)C1=O [Example 254] | 6.30 to 7.00 | < 6.30 | –
10 | CCn1cc(Nc2nccc(-c3csc(-c4cccc([C@]5(O)CCN(C)C5=O)c4)n3)n2)c(OC)n1 [Example 103, (R)-3-(3-(4-(2-((1-ethyl-3-methoxy-1H-pyrazol-4-yl)amino)pyrimidin-4-yl)thiazol-2-yl)phenyl)-3-hydroxy-1-methylpyrrolidin-2-one] | > 7.00 | 6.30 to 7.00 | –
11 | CN1CC[C@@](O)(c2cc(-c3csc(-c4ccnc(Nc5ccn(C)n5)n4)n3)ccc2F)C1=O (single isomer, unassigned) [Example 24] | < 6.30 | < 6.30 | –
12 | COCCn1ccc(Nc2nccc(-c3csc(-c4cccc([C@]5(O)CCN(C)C5=O)c4)n3)n2)n1 [Example 260, (R)-3-Hydroxy-3-(3-(4-(2-((1-(2-methoxyethyl)-1H-pyrazol-3-yl)amino)pyrimidin-4-yl)thiazol-2-yl)phenyl)-1-methylpyrrolidin-2-one] | > 7.00 | 6.30 to 7.00 | –
13 | Cc1cc(CNc2nccc(-c3csc(-c4cccc([C@]5(O)CCN(C)C5=O)c4)n3)n2)ccn1 [Example 202] | > 7.00 | < 6.30 | –
14 | CN1CC[C@@](O)(c2cccc(-c3nc(-c4ccnc(NCc5cn(C)cn5)n4)cs3)c2)C1=O [Example 196] | 6.30 to 7.00 | < 6.30 | –
15 | CN1CC[C@@](O)(c2cccc(-c3nc(-c4ccnc(NC5CCN(C6COC6)CC5)n4)cs3)c2)C1=O [Example 228] | < 6.30 | < 6.30 | –
16 | CN1CC[C@@](O)(c2cccc(-c3nc(-c4ccnc(N[C@H]5CC[C@H](O)C5)n4)cs3)c2)C1=O [Example 252] | 6.30 to 7.00 | < 6.30 | –
17 | CCn1cc(Nc2nccc(-c3csc(-c4cccc([C@]5(O)CCN(C)C5=O)c4)n3)n2)cn1 [Example 268, (R)-3-(3-(4-(2-((1-ethyl-1H-pyrazol-4-yl)amino)pyrimidin-4-yl)thiazol-2-yl)phenyl)-3-hydroxy-1-methylpyrrolidin-2-one] | > 7.00 | 6.30 to 7.00 | –
18 | COc1nn(CC(F)F)cc1Nc1nccc(-n2ccc(-c3cc([C@]4(O)CCN(C)C4=O)ccn3)n2)n1 (single isomer, unassigned) [Example 155, (R)-3-(2-(1-(2-((1-(2,2-difluoroethyl)-3-methoxy-1H-pyrazol-4-yl)amino)pyrimidin-4-yl)-1H-pyrazol-3-yl)pyridin-4-yl)-3-hydroxy-1-methylpyrrolidin-2-one or (S)-3-(2-(1-(2-((1-(2,2-difluoroethyl)-3-methoxy-1H-pyrazol-4-yl)amino)pyrimidin-4-yl)-1H-pyrazol-3-yl)pyridin-4-yl)-3-hydroxy-1-methylpyrrolidin-2-one] | > 7.00 | > 7.00 | –
19 | COC[C@@H](Nc1nccc(-c2nc(-c3cccc([C@]4(O)CCN(C)C4=O)c3)cs2)n1)c1ccnn1C (single isomer, unassigned) [Example 130] | > 7.00 | 6.30 to 7.00 | –
20 | CC(Nc1nccc(-c2csc(-c3cccc([C@]4(O)CCN(C)C4=O)c3)n2)n1)c1ccnn1C (stereo partly drawn) [Example 119, (R)-3-hydroxy-1-methyl-3-(3-(4-(2-(((R,S)-1-(1-methyl-1H-pyrazol-5-yl)ethyl)amino)pyrimidin-4-yl)thiazol-2-yl)phenyl)pyrrolidin-2-one] | > 7.00 | 6.30 to 7.00 | –
21 | CN1CC[C@@](O)(c2cccc(-c3nc(-c4ccnc(Nc5ccn(CC(F)(F)F)n5)n4)cs3)c2)C1=O [Example 75, (R)-3-hydroxy-1-methyl-3-(3-(4-(2-((1-(2,2,2-trifluoroethyl)-1H-pyrazol-3-yl)amino)pyrimidin-4-yl)thiazol-2-yl)phenyl)pyrrolidin-2-one] | > 7.00 | 6.30 to 7.00 | –
22 | CN1CC[C@@](O)(c2cccc(-c3csc(-c4ccnc(Nc5cnn(C(CO)CO)c5)n4)n3)c2)C1=O [Example 44, (R)-3-(3-(2-(2-((1-(1,3-dihydroxypropan-2-yl)-1H-pyrazol-4-yl)amino)pyrimidin-4-yl)thiazol-4-yl)phenyl)-3-hydroxy-1-methylpyrrolidin-2-one] | > 7.00 | < 6.30 | –
23 | CN1CC[C@@](O)(c2cccc(-c3nc(-c4nc(Nc5ccn(C)n5)ncc4F)cs3)c2)C1=O [Example 52, (R)-3-(3-(4-(5-Fluoro-2-((1-methyl-1H-pyrazol-3-yl)amino)pyrimidin-4-yl)thiazol-2-yl)phenyl)-3-hydroxy-1-methylpyrrolidin-2-one] | 6.30 to 7.00 | < 6.30 | –
24 | CN1CC[C@@](O)(c2cccc(-c3nc(-c4ccnc(N[C@H]5C[C@@H](O)C5)n4)cs3)c2)C1=O [Example 180] | 6.30 to 7.00 | < 6.30 | –
25 | CN1CC[C@@](O)(c2cccc(-c3nc(-c4ccnc(Nc5cn(CCF)cn5)n4)cs3)c2)C1=O [Example 117, (R)-3-(3-(4-(2-((1-(2-fluoroethyl)-1H-imidazol-4-yl)amino)pyrimidin-4-yl)thiazol-2-yl)phenyl)-3-hydroxy-1-methylpyrrolidin-2-one] | > 7.00 | 6.30 to 7.00 | –
26 | CN1CC[C@@](O)(c2cccc(-c3nc(-c4ccnc(Nc5cc(C(F)(F)F)n(C)n5)n4)cs3)c2)C1=O [Example 256, (R)-3-Hydroxy-1-methyl-3-(3-(4-(2-((1-methyl-5-(trifluoromethyl)-1H-pyrazol-3-yl)amino)pyrimidin-4-yl)thiazol-2-yl)phenyl)pyrrolidin-2-one] | > 7.00 | < 6.30 | –
27 | COCCn1cc(Nc2nccc(-c3nc(-c4cccc([C@]5(O)CCN(C)C5=O)c4)cs3)n2)cn1 [Example 86, (R)-3-hydroxy-3-(3-(2-(2-((1-(2-methoxyethyl)-1H-pyrazol-4-yl)amino)pyrimidin-4-yl)thiazol-4-yl)phenyl)-1-methylpyrrolidin-2-one] | > 7.00 | > 7.00 | –
28 | CNC(=O)c1ccc(C)c(Nc2nccc(-c3csc(-c4cccc([C@]5(O)CCN(C)C5=O)c4)n3)n2)c1 [Example 10, (R)-3-((4-(2-(3-(3-Hydroxy-1-methyl-2-oxopyrrolidin-3-yl)phenyl)thiazol-4-yl)pyrimidin-2-yl)amino)-N,4-dimethylbenzamide] | > 7.00 | 6.30 to 7.00 | –
29 | CN1CC[C@@](O)(c2cccc(-c3nc(-c4ccnc(NCc5ccnn5C)n4)cs3)c2)C1=O [Example 197] | > 7.00 | < 6.30 | –
30 | Cc1cccc(Nc2nccc(-c3csc(-c4cccc([C@]5(O)CCN(C)C5=O)c4)n3)n2)n1 [Example 48, (R)-3-hydroxy-1-methyl-3-(3-(4-(2-((6-methylpyridin-2-yl)amino)pyrimidin-4-yl)thiazol-2-yl)phenyl)pyrrolidin-2-one] | > 7.00 | < 6.30 | –
